One assay relates to T1, STING.
T1 construct: from tissue; host or cells: human whole blood from healthy donors
As to the kind of experiment: Human whole blood assay (HWBA), cGAMP-stimulated IFNα2α production. The settings on record: human whole blood stimulated by cGAMP. The class given is cell-based. The protocol:
For the detection of STING inhibition in physiological environment human whole blood was stimulated by the cyclic dinucleotide cGAMP. Pathway activity was monitored by measuring the IFNα2α production.
Assay method: Compounds were delivered as 10 mM DMSO solution and serial diluted and transferred to the 96-well Cell culture Plate (Corning #3595), prefilled with 20 μl OptiMEM (Gibco #11058-021) in each well, using an Echo acoustic dispenser. Typically, 8 concentrations were used with the highest concentration at 10 μM in the final assay volume followed by ^˜1:5 dilution steps. DMSO concentration was set to 0.1% in the final assay volume. The 96 well assay plate contained 9 test compounds, a reference compound and DMSO in control wells.
Collection of human whole blood from 3 or more healthy donors (male or female, no medication for 7 days, exception contraceptive and thyroxine) as Na-citrate blood (e.g. 3.8% in Monovettes from Sarstedt) is conducted in parallel. Whole blood was kept at room temperature for a maximum of 3 hours after collection until use in the assay.
160 μl of the whole blood samples were transferred to each well of the 96-well assay plates filled with compound/OptiMEM. All assay plates are prepared as duplicates with blood from different donors. Blood plates were kept at room temperature for 60 minutes and continuous shaking with 450 rpm, covered with the lid, but not sealed.
A 10× cGAMP assay solution was diluted from a 2 mM stock solution in 1×HBSS immediately before use at room temperature. 20 μl of the 10× cGAMP/HBSS were added to all compound and all high control wells, whereas HBSS only was added to all low control wells.
After covering assay plates with aera seals and the lid, blood plates were kept at room temperature for 30 minutes and continuous shaking with 450 rpm, followed by an overnight incubation of 22 h at 37° C. in the incubator, without shaking.
For the detection of IFNα-2α in human plasma, the biotinylated capture antibody (Antibody set IFNA2, Meso Scale Diagnostics #B21VH-3, including coating and capture antibody) was diluted 1:17.5 in Diluent 100 (Meso Scale Diagnostics #R50AA-4, according to the manufacturer. U-Plex MSD GOLD 96-well Small Spot Streptavidin SECTOR Plates (Meso Scale Diagnostics #L45SA-5) were coated with 25 μl diluted capture antibody. Coated plates were incubated for 60 min at room temperature under continuous shaking at 700 rpm. MSD IFNα-2α plates were washed three times with 150 μl wash buffer (1×HBSS, 0.05% Tween).
After blocking the plates with 100 μl block solution/well (1×HBSS with 0.2% Tween, 2% BSA) for 60 min at room temperature and continuous shaking at 700 rpm, plates were emptied as dry as possible by dumping just before continuing with the human plasma. Whole Blood assay plates were centrifuged at 1600 rpm for 10 minutes. 25 μl of supernatant was transferred with a pipetting robotics from each whole blood plate to the corresponding IFNα-2α plate. Plates were sealed with microplate seals and kept at room temperature again under continuous shaking at 700 rpm for two hours. Next MSD IFNα-2α plates were washed three times with 150 μl wash buffer (1×HBSS, 0.05% Tween), before adding 25 μl MSD SULFO-TAG IFNα-2α Antibody solution (1:100 diluted in Diluent 3 (Meso Scale Diagnostics #R50AP-2) to each well of the plates. Afterwards plates were sealed with microplate seals and kept at room temperature again under continuous shaking at 700 rpm for two hours. Finally, MSD IFNα-2α plates were washed three times with 150 μl wash buffer (1×HBSS, 0.05% Tween). 150 μl 2× Read buffer was added to each well and plates were immediately measured with the MSD Sector S600 Reader using the vendor barcode.
Data evaluation and calculation: For data evaluation and calculation, % control calculation of each well was based on the mean of high (cGAMP stimulated control) and mean of low (unstimulated control) controls by using the following formula: […]

In assay [1] the test system is T2, wild-type (GRR) human STING cGAMP binding domain (residues 155-341).
T2 construct: His-TEV-hSTING (WT); TEV protease cleavage site (N); made in house; host or cells: E. coli BL21 DE3
The experiment in a line: Differential Scanning Fluorimetry (DSF), stability of STING protein against thermal denaturation. The settings on record: 100 uM compound, 3 uM target protein. The procedure:
Dye fluorescence is quenched in aqueous environment and increases upon association of the dye with the hydrophobic parts of the unfolding protein. […] The inflection point of the curve represents the “melting” temperature of the protein (Tm) which is calculated numerically using the Boltzmann equation.
Method: The thermal stability of the STING protein was measured using a specific expression construct of the cGAMP binding domain of wild-type (GRR) human STING comprising residues 155-341 and a N-terminal 8x His-tag in assay buffer containing 20 mM Tris, 150 mM NaCl at pH7.5.
The assay uses Hard-Shell®PCR Plates 384-Well CLR/WHT (Catalog #HSP3805, BIO-RAD), Microseal®‘B’ Adhesive Seals for PCR Plates (Catalog #MSB-1001, BIO-RAD) and was run on a CFX384 Real-Time System (Bio-Rad).
A DMSO stock solution of SYPRO orange (SIGMA S5692-500UL) was prepared.
Compound stock solutions (10 mM in DMSO) were diluted 1:2 in DMSO to an intermediate compound concentration of 5 mM and then further diluted 1:40 in assay buffer resulting in a compound concentration of 125 μM and 2.5% DMSO.
Fluorescent dye stock solution (5000×SYPRO Orange) was then mixed with target protein and buffer to a concentration of 15 uM Protein and 25×SYPRO Orange. 2 ul of this protein-dye-mixture was added to 8 ul compound solution. Final volume was 10 uL. 3-6 well positions were used as negative control (protein with 2% DMSO). The plates were prepared for duplicate measurement and centrifuged for 2 min at 1000 g. In the measurement, 160 cycles of 0.5° C. were used (temperature ramp 15 s/cycle, 15° C. to 95° C.).
Final Assay concentrations for compound characterization were as follows:
100 uM compound, 3 uM target protein, 5×SYPRO Orange, 2% DMSO in 10 ul. All dispensing steps were performed using a HamiltonStar pipetting robot (Hamilton).
Dissociation curves were processed in Bio-Rad CFX Manager. Peak type was set to “negative”.
Compound codes for screen were assigned in the plate layout.
Two replicates of TM measurements were averaged, and the standard deviation was calculated. In cases of SD>1.5° C. the measurement was repeated.
The melting point (Tm) obtained for STING protein alone was subtracted from T obtained for protein incubated with ligand to generate ΔTm values.
Protein production and purification: The protein used for the biophysical experiments was a recombinant human STING protein comprising its cytosolic ectodomain. A codon optimized DNA sequence (for expression in Escherichia coli) encoding amino acid residues 155 to 341 (Swiss Prot Q86WV6) of human STING (WT) was synthesized by GeneArt (Regensburg, Germany) and inserted into a pET17b E. coli expression vector. The protein construct encodes an N-terminal 8× His-tag followed by tobacco etch virus protease (TEV) cleavage site and the above STING gene sequence. The resulting protein sequence for the used STING variant is listed below:
For expression of recombinant human STING above construct was transformed into E. coli BL21 DE3 strain and grown in shake flasks in LB-medium at 37° C. Expression was induced by addition of isopropyl β-D-1-thiogalactopyranoside to a final concentration of 1 mM and cultures shaken overnight. Cell pellets were centrifuged and stored at −70° C. until further use. Protein was purified by cell thawing in lysis buffer (20 mM TRIS-HCl, pH 8, 300 mM NaCl, 2 mM mercaptoethanol, 20 mM imidazole, Complete Protease Inhibitor (Roche) and DNase (Roche)), followed by metal affinity purification using Ni-NTA resins and elution buffer consisting of 20 mM TRIS-HCl, pH 8, 300 mM NaCl, 2 mM mercaptoethanol, 300 mM imidazole and size exclusion chromatography in running buffer (20 mM TRIS-HCl, pH 8, 100 mM NaCl, 2 mM DTT). The peak fraction was collected and concentrated to 2.5 mg/mL.

In general, IC50 refers to the concentration at which inhibition is half-maximal. Higher therefore signals weaker potency.

Molecules are shown by their SMILES.

For the compound `Cn1c(-c2ccc(P(C)(C)=O)cc2OC(F)(F)F)nc(-c2cccc3nn(-c4cc(C(F)(F)F)[nH]n4)cc23)c1C1CC1` [Example 21, 4-{5-cyclopropyl-2-[4-(dimethylphosphoryl)-2-(trifluoromethoxy)phenyl]-1-methylimidazol-4-yl}-2-[5-(trifluoromethyl)-1H-pyrazol-3-yl]indazole], the half-inhibitory concentration (IC50) in the assay with STING came to 0.13 µM. The “DSF ΔTm (K)” value in assay [1] is reported as 29 K.
`CNC(=O)c1ccc(-c2nc(-c3cccc4nn(-c5cn(C6CC6)nc5OC)cc34)c(C3CC3)n2C)c(OC(F)(F)F)c1` [Example 1, 4-{5-cyclopropyl-4-[2-(1-cyclopropyl-3-methoxy-1H-pyrazol-4-yl)-2H-indazol-4-yl]-1-methyl-1H-imidazol-2-yl}-N-methyl-3-(trifluoromethoxy)benzamide] displayed a 50% inhibitory concentration (IC50) with STING of 0.082 µM. Also, the “DSF ΔTm (K)” value in assay [1] was found to be 28 K.
